Measured values as given in patent US10683292B2, “Purine and 3-deazapurine analogues as choline kinase inhibitors” (NERVIANO MEDICAL SCIENCES S.R.L., priority 2016, dated 2020).
pIC50: −log10 of the molar value. Where a name gives a salt, the structure may show the parent alone. Read-outs that look alike come from different tables or passages of the source.

Legend:
hChoKβ FL = target: T1, hChoKβ FL (Homo sapiens, UniProt Q9Y259); test: Biochemical kinase inhibition assay (Kinase-Glo Luminescent Kinase Assay) on hChoKβ FL; details: ATP 5 μM, choline 20 μM, 60 minutes at rt; read-out: IC50 ChoKβ
T1 construct: hChoKβ full length (FL), corresponding to aminoacids 2-395; GST (N, cleaved yes); Prescission Protease recognition site (N, cleaved yes); made in house; host or cells: Escherichia coli BL21pLysS (DE3)

Δ49N-hChoKα = target: T2, Δ49N-hChoKα (Homo sapiens, UniProt P35790); test: Biochemical kinase inhibition assay (Kinase-Glo Luminescent Kinase Assay) on Δ49N-hChoKα
T2 construct: cDNA fragment 362-1534, corresponding to aminoacids 50-457; GST (N, cleaved yes); Prescission Protease recognition site (N, cleaved yes); made in house; host or cells: Escherichia coli BL21pLysS (DE3)
Protocol: The biochemical activity of compounds against Δ49N-ChoKα and ChoKβ FL were determined using the Kinase-Glo™ Luminescent Kinase Assay (Promega cat. V6711).
Compounds were 3-fold serially diluted from 10 to 0.0005 μM, then incubated for 60 minutes at rt in the presence of ATP 5 μM, choline (5 μM for ChoKα and 20 μM for ChoKβ) and enzyme in a final volume of 19 μL of kinase buffer (50 mM Hepes pH 7.5, 10 mM MgCl2, 1 mM DTT, 3 μM Na3VO4 and 0.2 mg/mL BSA). The final concentration of DMSO was 1%.
At the end of the incubation, an amount of 19 μL of KinaseGlo Reagent was added to each well to stop the reaction and after 30 minutes the luminescence signal was measured using ViewLux reader (Perkin Elmer).
The data per each molecule are analyzed by an internally customized version of the SW package “Assay Explorer” which provides sigmoidal fittings of the ten-dilution curves for IC50 determination using a 4 parameter logistic equation: y=bottom+(top−bottom)/(1+10^((log IC50−x)*slope)) where x is the logarithm of the inhibitor concentration, y is the response; y starts at bottom and goes to top with a sigmoid shape.

[1] = ATP 5 μM, choline 5 μM, 60 minutes at rt, read-out: IC50 ChoKα

T1 sequence (Q9Y259 2-395): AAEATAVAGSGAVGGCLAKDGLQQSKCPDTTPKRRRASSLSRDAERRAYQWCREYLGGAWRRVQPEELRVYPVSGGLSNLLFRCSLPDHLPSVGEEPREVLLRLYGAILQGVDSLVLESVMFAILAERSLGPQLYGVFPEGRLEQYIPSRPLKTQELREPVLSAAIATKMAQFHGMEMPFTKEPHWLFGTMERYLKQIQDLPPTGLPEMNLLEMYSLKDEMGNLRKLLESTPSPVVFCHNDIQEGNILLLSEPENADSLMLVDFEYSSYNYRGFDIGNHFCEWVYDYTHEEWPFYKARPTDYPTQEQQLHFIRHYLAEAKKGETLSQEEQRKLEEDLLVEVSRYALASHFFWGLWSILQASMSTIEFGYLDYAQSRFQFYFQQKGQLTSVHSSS
T2 sequence (P35790 50-457, stated change not applied): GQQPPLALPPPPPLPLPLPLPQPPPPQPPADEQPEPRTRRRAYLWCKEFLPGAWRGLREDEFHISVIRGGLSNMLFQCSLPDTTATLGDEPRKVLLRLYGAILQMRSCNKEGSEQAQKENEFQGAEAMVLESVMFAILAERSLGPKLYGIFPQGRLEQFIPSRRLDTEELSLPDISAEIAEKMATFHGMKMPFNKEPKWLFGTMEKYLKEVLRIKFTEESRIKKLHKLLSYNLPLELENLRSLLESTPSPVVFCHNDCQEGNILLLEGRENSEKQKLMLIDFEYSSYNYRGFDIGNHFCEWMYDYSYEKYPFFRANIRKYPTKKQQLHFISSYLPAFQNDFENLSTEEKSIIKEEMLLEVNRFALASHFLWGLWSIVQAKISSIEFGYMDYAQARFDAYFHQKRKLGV

SMILES	pIC50 (hChoKβ FL)	pIC50 (Δ49N-hChoKα; [1])	pIC50 (Δ49N-hChoKα)
CN(c1nc(CC(N)=O)cs1)C(=O)[C@H]1CC[C@@H](n2cnc3c(N)nc(Cl)nc32)CC1 [cpd 164, cis-4-(6-amino-2-chloro-9H-purin-9-yl)-N-[4-(2-amino-2-oxoethyl)-1,3-thiazol-2-yl]-N-methylcyclohexanecarboxamide]	< 5.00	7.15	
CN(C)c1ccc2nc(NC(=O)[C@H]3CC[C@@H](n4cnc5c(N)nc(Cl)nc54)CC3)sc2c1 [cpd 165, cis-4-(6-amino-2-chloro-9H-purin-9-yl)-N-[6-(dimethylamino)-1,3-benzothiazol-2-yl]cyclohexanecarboxamide]	< 5.00	7.22	
Nc1nc(Cl)nc2c1ncn2[C@H]1CC[C@@H](C(=O)Nc2nc3cc(F)c(F)cc3s2)CC1 [cpd 168, cis-4-(6-amino-2-chloro-9H-purin-9-yl)-N-(5,6-difluoro-1,3-benzothiazol-2-yl)cyclohexanecarboxamide]	< 5.00	7.35	
COc1nc(N)c2ncn([C@H]3CC[C@@H](C(=O)Nc4nc5ccc(F)cc5s4)CC3)c2n1 [cpd 170, cis-4-(6-amino-2-methoxy-9H-purin-9-yl)-N-(6-fluoro-1,3-benzothiazol-2-yl)cyclohexanecarboxamide]	< 5.00	7.27	
COC(=O)Cc1ccc2nc(NC(=O)[C@H]3CC[C@@H](n4cnc5c(N)nc(Cl)nc54)CC3)sc2c1 [cpd 174, methyl [2-({[cis-4-(6-amino-2-chloro-9H-purin-9-yl)cyclohexyl]carbonyl}amino)-1,3-benzothiazol-6-yl]acetate]	< 5.00	7.39	
Nc1nc(Cl)nc2c1ncn2[C@H]1CC[C@@H](C(=O)Nc2nc3ccc(Br)cc3s2)CC1 [cpd 175, cis-4-(6-amino-2-chloro-9H-purin-9-yl)-N-(6-bromo-1,3-benzothiazol-2-yl)cyclohexanecarboxamide]	< 5.00	7.31	
Nc1nc(Cl)nc2c1ncn2[C@H]1CC[C@@H](C(=O)Nc2nc3ccc(OC(F)(F)F)cc3s2)CC1 [cpd 181, cis-4-(6-amino-2-chloro-9H-purin-9-yl)-N-[6-(trifluoromethoxy)-1,3-benzothiazol-2-yl]cyclohexanecarboxamide]	< 5.00	7.18	
CC(C)(C)OC(=O)N1[C@H]2CC[C@@H]1c1sc(NC(=O)[C@H]3CC[C@@H](n4cnc5c(N)nc(Cl)nc54)CC3)nc1C2 [cpd 187, tert-butyl (5S,8R)-2-({[cis-4-(6-amino-2-chloro-9H-purin-9-yl)cyclohexyl]carbonyl}amino)-5,6,7,8-tetrahydro-4H-5,8-epiminocyclohepta[d][1,3]thiazole-9-carboxylate]	5.25		7.54
Nc1nc(Cl)nc2c1ncn2[C@H]1CC[C@@H](C(=O)Nc2nc3c(s2)CC(F)(F)CC3)CC1 [cpd 188, cis-4-(6-amino-2-chloro-9H-purin-9-yl)-N-(6,6-difluoro-4,5,6,7-tetrahydro-1,3-benzothiazol-2-yl)cyclohexanecarboxamide]	< 5.00	8.05	
Nc1nc(Cl)nc2c1ncn2[C@H]1CC[C@@H](C(=O)Nc2nc3c(s2)[C@H]2CC[C@@H](C3)N2)CC1 [cpd 189, cis-4-(6-amino-2-chloro-9H-purin-9-yl)-N-[(5S,8R)-5,6,7,8-tetrahydro-4H-5,8-epiminocyclohepta[d][1,3]thiazol-2-yl]cyclohexanecarboxamide hydrochloride]	< 5.00		7.57
Nc1nc(F)nc2c1ncn2[C@H]1CC[C@@H](C(=O)Nc2nc3c(s2)CC(F)(F)CC3)CC1 [cpd 191, cis-4-(6-amino-2-fluoro-9H-purin-9-yl)-N-(6,6-difluoro-4,5,6,7-tetrahydro-1,3-benzothiazol-2-yl)cyclohexanecarboxamide]	< 5.00	7.96	
NC(=O)CN1CCc2nc(NC(=O)[C@H]3CC[C@@H](n4cnc5c(N)nc(Cl)nc54)CC3)sc2C1 [cpd 196, cis-4-(6-amino-2-chloro-9H-purin-9-yl)-N-[5-(2-amino-2-oxoethyl)-4,5,6,7-tetrahydro[1,3]thiazolo[5,4-c]pyridin-2-yl]cyclohexanecarboxamide]	< 5.00	7.59	
CN1CCc2nc(NC(=O)[C@H]3CC[C@@H](n4cnc5c(N)nc(I)nc54)CC3)sc2C1 [cpd 198, cis-4-(6-amino-2-iodo-9H-purin-9-yl)-N-(5-methyl-4,5,6,7-tetrahydro[1,3]thiazolo[5,4-c]pyridin-2-yl)cyclohexanecarboxamide]	< 5.00	7.48	

The remaining compounds from weak to strong by pIC50 (hChoKβ FL), led by results:

pIC50 (hChoKβ FL)	pIC50 (Δ49N-hChoKα; [1])	SMILES	pIC50 (Δ49N-hChoKα)
5.17	7.64	Nc1nc(Cl)nc2c1ncn2[C@H]1CC[C@@H](C(=O)Nc2nc3ccc(OC(F)F)cc3s2)CC1 [cpd 180, cis-4-(6-amino-2-chloro-9H-purin-9-yl)-N-[6-(difluoromethoxy)-1,3-benzothiazol-2-yl]cyclohexanecarboxamide]	
5.21	7.62	CC1(C)Cc2nc(NC(=O)[C@H]3CC[C@@H](n4cnc5c(N)nc(Cl)nc54)CC3)sc2CO1 [cpd 195, cis-4-(6-amino-2-chloro-9H-purin-9-yl)-N-(6,6-dimethyl-6,7-dihydro-4H-pyrano[4,3-d][1,3]thiazol-2-yl)cyclohexanecarboxamide]	
5.22	6.51	COc1cccc(NC(=O)N[C@H]2CC[C@@H](n3cnc4c(N)nc(Cl)nc43)CC2)c1 [cpd 197, 1-[cis-4-(6-amino-2-chloro-9H-purin-9-yl)cyclohexyl]-3-(3-methoxyphenyl)urea]	
5.24	6.98	Nc1nc(Cl)nc2c1ncn2[C@H]1CC[C@@H](C(=O)Nc2nc3cc(F)c(F)c(F)c3s2)CC1 [cpd 171, cis-4-(6-amino-2-chloro-9H-purin-9-yl)-N-(5,6,7-trifluoro-1,3-benzothiazol-2-yl)cyclohexanecarboxamide]	
5.26	7.28	CC(C)(C)OC(=O)N1CCc2nc(NC(=O)[C@H]3CC[C@@H](n4cnc5c(N)nc(Cl)nc54)CC3)sc2C1 [cpd 169, tert-butyl 2-({[cis-4-(6-amino-2-chloro-9H-purin-9-yl)cyclohexyl]carbonyl}amino)-6,7-dihydro[1,3]thiazolo[5,4-c]pyridine-5(4H)-carboxylate]	
5.26	7.37	Nc1nc(Cl)nc2c1ncn2[C@H]1CC[C@@H](C(=O)Nc2nc3cc4c(cc3s2)OCO4)CC1 [cpd 186, cis-4-(6-amino-2-chloro-9H-purin-9-yl)-N-([1,3]dioxolo[4,5-f][1,3]benzothiazol-6-yl)cyclohexanecarboxamide]	
5.40	7.47	Nc1nc(Cl)nc2c1ncn2[C@H]1CC[C@@H](C(=O)Nc2nc3ccc(CC(=O)O)cc3s2)CC1 [cpd 176, [2-({[cis-4-(6-amino-2-chloro-9H-purin-9-yl)cyclohexyl]carbonyl}amino)-1,3-benzothiazol-6-yl]acetic acid]	
5.70	7.77	CC(=O)Nc1ccc2nc(NC(=O)[C@H]3CC[C@@H](n4cnc5c(N)nc(Cl)nc54)CC3)sc2c1 [cpd 183, cis-N-[6-(acetylamino)-1,3-benzothiazol-2-yl]-4-(6-amino-2-chloro-9H-purin-9-yl)cyclohexanecarboxamide]	
